{"source": "patent US10226041B2", "about": "“Compositions and methods for improving the quality of processed sperm” (Inguran, LLC, priority 2011, dated 2019)", "tested_on": "sex-sorted sperm cells", "experiment": "Percent intact acrosomes (PIA) of sex sorted sperm post-thaw", "type": "cell-based, bovine", "conditions": "for PIA: 3 step", "from_the_text": "In the tables below: VAP (average path velocity (μm/s)); VSL (straight-line velocity (μm/s)); VCL (curvilinear velocity (μm/s)); ALH (average lateral head displacement (μm)); BCF (the number of times the sperm head crosses the mean path/s in Hz); STR (percent straight-line sperm motility); LIN (percent linear sperm motility); PIA (percent intact acrosomes); motile (percent motile sperm); and progressive (percent progressively motile sperm).", "note": "Values joined by “and” are separate entries in the source; they are usually repeats but may differ in a detail not shown here. Identical values can stand only once.", "data": [{"compound": "vitamin B12", "values": [{"measurement": "PIA (percent intact acrosomes)", "setting": "0.5 mg/ml, 2 step F, 3 hrs post-thaw, Bulls 1-5", "value": "84% and 87% and 88% and 79% and 74%"}, {"measurement": "PIA", "setting": ".15 mg/ml, Holstein, 1M/straw, 3 hr post-thaw", "value": 66}, {"measurement": "PIA", "setting": ".15 mg/ml, Holstein, 2.1M/straw, 3 hr post-thaw", "value": 72}, {"measurement": "PIA", "setting": ".15 mg/ml, Jersey, 2.1M/straw, 3 hr post-thaw", "value": 63}, {"measurement": "PIA", "setting": ".25 mg/ml, Holstein, 1M/straw, 3 hr post-thaw", "value": 58}, {"measurement": "PIA", "setting": ".25 mg/ml, Holstein, 2.1M/straw, 3 hr post-thaw", "value": 76}, {"measurement": "PIA", "setting": ".25 mg/ml, Holstein, 5M/straw, 3 hr post-thaw", "value": 68}, {"measurement": "PIA", "setting": ".25 mg/ml, Jersey, 2.1M/straw, 3 hr post-thaw", "value": 78}, {"measurement": "PIA", "setting": ".35 mg/ml, Holstein, 1M/straw, 3 hr post-thaw", "value": 70}, {"measurement": "PIA", "setting": ".35 mg/ml, Holstein, 2.1M/straw, 3 hr post-thaw", "value": 60}, {"measurement": "PIA", "setting": ".35 mg/ml, Holstein, 5M/straw, 3 hr post-thaw", "value": 69}, {"measurement": "PIA", "setting": ".5 mg/ml, Holstein, 5M/straw, 3 hr post-thaw", "value": 50}]}, {"compound": "O=C(O)CCC(=O)C(=O)O", "note": "[AKG, Alpha-ketoglutarate]", "values": [{"measurement": "PIA", "setting": "Holstein 3 hr post-thaw (1st block), .25 mg/ml", "value": 89}, {"measurement": "PIA", "setting": "Holstein 3 hr post-thaw (1st block), .35 mg/ml", "value": 80}, {"measurement": "PIA", "setting": "Holstein 3 hr post-thaw (1st block), .45 mg/ml", "value": 80}, {"measurement": "PIA", "setting": "Holstein 3 hr post-thaw (2nd block), .25 mg/ml", "value": 89}, {"measurement": "PIA", "setting": "Holstein 3 hr post-thaw (2nd block), .35 mg/ml", "value": 80}, {"measurement": "PIA", "setting": "Holstein 3 hr post-thaw (2nd block), .45 mg/ml", "value": 80}, {"measurement": "PIA", "setting": "Holstein 6 hr post-thaw (1st block), .25 mg/ml", "value": 73}, {"measurement": "PIA", "setting": "Holstein 6 hr post-thaw (1st block), .35 mg/ml", "value": 85}, {"measurement": "PIA", "setting": "Holstein 6 hr post-thaw (1st block), .45 mg/ml", "value": 79}, {"measurement": "PIA", "setting": "Holstein 6 hr post-thaw (2nd block), .25 mg/ml", "value": 73}, {"measurement": "PIA", "setting": "Holstein 6 hr post-thaw (2nd block), .35 mg/ml", "value": 85}, {"measurement": "PIA", "setting": "Holstein 6 hr post-thaw (2nd block), .45 mg/ml", "value": 79}, {"measurement": "PIA", "setting": "Jersey 3 hr post-thaw, .25 mg/ml", "value": 62}, {"measurement": "PIA", "setting": "Jersey 3 hr post-thaw, .35 mg/ml", "value": 54}, {"measurement": "PIA", "setting": "Jersey 3 hr post-thaw, .45 mg/ml", "value": 71}]}]}
